“Also recorded” adds a separate entry of the source.
Tests used:
[1] = test system: prostaglandin E2 (PGE2) production; assay: PGE2 production in A549 cells; type: cell-based, human
Experimental: A549 cells were seeded in 24-well plates in DMEM with 10% fetal bovine serum. After overnight culture, cells were stimulated with 10 ng/ml IL-1β in DMEM medium without serum for 24 hr. After 10 min pretreatment with the indicated concentrations of Sulindac or analog, cells were co-treated with 10 μM arachidonic acid and Sulindac or its analog for 30 min at 37° C. Medium was collected and immediately assayed. PGE2 production was measured with Prostaglandin E2 EIA Kit-Monoclonal according to the manufacturer's instructions (Cayman Chemical, Ann Arbor, Mich.). PGE2 production (%) is expressed as the ratio of PGE2 produced in the presence of compound to that with vehicle alone.

[2] = Preclinical toxicity study; type: in vivo
Experimental: (§1) Preclinical studies of K-80003 were performed, including the investigation of toxicity, bioavailability, and pharmacokinetics.

[3] = Preclinical bioavailability and pharmacokinetics; type: in vivo
Experimental: as §1

RXRα/TRα heterodimers = target: T1, RXRα/TRα heterodimers (Homo sapiens, UniProt P19793); assay: TREpal2-tk-CAT reporter assay in CV-1 cells; type: cell-based; details: T3 10^−7 M
T1 construct: expressed in transfected cells; host or cells: CV-1 green monkey kidney cells
Experimental: Receptor expression vectors and a reporter gene (TREpal2-tk-CAT for RXRα/TRα heterodimers (FIG. 9C), and DR1 tk-CAT for RXRα/PPARγ heterodimer (FIG. 9B)) were transiently transfected into CV-1 cells. Cells were treated with or without ligands (ciglitazone, 10^−6 M; T3, 10^−7 M) in the presence or absence of Sulindac. CAT activity was determined.
Cells (1×10^5 cells/well) seeded in 24-well plates were transiently transfected using a modified calcium phosphate precipitation procedure as described (Kolluri, S. K. et al., Proc Natl Acad Sci USA 102 (7), 2525-2530 (2005); Cao, X., et al., Mol Cell Biol 24(22), 9705-9725 (2004)).

COX = details: Haanen, 2001; cited from earlier work

T1 sequence (P19793 whole entry): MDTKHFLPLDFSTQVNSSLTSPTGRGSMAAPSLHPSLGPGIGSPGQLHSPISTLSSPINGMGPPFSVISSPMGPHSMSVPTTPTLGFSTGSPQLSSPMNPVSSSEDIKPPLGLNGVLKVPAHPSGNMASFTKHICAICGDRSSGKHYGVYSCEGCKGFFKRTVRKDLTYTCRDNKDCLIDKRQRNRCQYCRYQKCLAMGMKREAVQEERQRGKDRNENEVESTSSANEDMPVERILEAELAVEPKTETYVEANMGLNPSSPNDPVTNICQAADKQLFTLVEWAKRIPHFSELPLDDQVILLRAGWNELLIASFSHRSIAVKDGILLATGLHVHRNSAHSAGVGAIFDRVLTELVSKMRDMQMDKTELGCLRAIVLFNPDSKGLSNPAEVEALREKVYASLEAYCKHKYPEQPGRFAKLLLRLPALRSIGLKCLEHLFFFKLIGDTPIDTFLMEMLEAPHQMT
T1 sequence (P10827 1-410 isoform P10827-2 partner): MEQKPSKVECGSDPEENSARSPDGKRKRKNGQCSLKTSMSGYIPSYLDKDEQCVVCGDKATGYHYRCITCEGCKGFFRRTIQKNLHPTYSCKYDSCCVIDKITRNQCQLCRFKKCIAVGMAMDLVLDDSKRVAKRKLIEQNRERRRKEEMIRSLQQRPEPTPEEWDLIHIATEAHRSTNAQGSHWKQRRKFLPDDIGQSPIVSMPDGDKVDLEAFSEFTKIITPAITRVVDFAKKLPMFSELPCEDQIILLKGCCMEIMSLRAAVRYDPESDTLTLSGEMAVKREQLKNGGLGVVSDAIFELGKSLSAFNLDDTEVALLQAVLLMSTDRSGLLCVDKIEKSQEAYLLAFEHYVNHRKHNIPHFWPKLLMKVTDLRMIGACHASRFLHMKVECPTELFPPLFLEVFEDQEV

SMILES	inhibition of constitutive and TNFα- or IL-1β-induced PGE2 production [1]	toxicity [2]	bioavailability ([3]; oral compared to intravenous formulation)	PK profiles ([3]; preclinical study)	transactivation of RXR/TR heterodimers (CAT activity) (RXRα/TRα heterodimers)	COX-inhibiting activity (COX)
CC1=C(CC(=O)O)c2cc(F)ccc2/C1=C\c1ccc(C(C)C)cc1 [K-80003, (Z)-2-(3-(4-Iso-propylbenzylidene)-6-fluoro-2-methyl-3H-inden-1-yl)acetic acid]	failed to inhibit; also recorded: did not inhibit	very low toxicity	increased bioavailaility in oral compared to intravenous formulation	desirable PK profiles		
CSc1ccc(/C=C2/C(C)=C(CC(=O)O)c3cc(F)ccc32)cc1 [Sulindac, (Z)-2-(3-(4-(Methylthio)benzylidene)-6-fluoro-2-methyl-3H-inden-1-yl)acetic acid]					not RXR/TR heterodimers	potent COX inhibitor

From patent publication US10087156B2, “Methods and compositions related to retinoid receptor-selective pathway” (Sanford Burnham Prebys Medical Discovery Institute, priority 2010, dated 2018)
